Assay results as given in patent US10851108B2, “Substituted bicyclic heterocyclic compounds” (BRISTOL-MYERS SQUIBB COMPANY, priority 2016, dated 2020).

These molecules were tested against hROMK (human Kir1.1) (Homo sapiens (Human), UniProt P48048) (assay: Thallium Flux Assay). Conditions: CHO T-Rex hROMK stable cell line, 10-point concentration response; read-out: hROMK Th+ Flux IC50.
Type: cell-based
Experimental: Solutions and reagents: Thallium flux assay was performed using FluxOR kit (F10017, Life Technologies). Loading buffer, assay buffer and stimulus buffer were prepared using kit components. HBSS (Hank's balanced salt solution, Cat #14025-092) was purchased separately from Life Technologies.
To prepare 10 ml of loading buffer: 10 μl of FluxOR dye (reconstituted in DMSO) was first added to 100 μl of powerload concentrate and this mix along with 100 μl of Probenicid (100×) was then added to 9.79 ml of HBSS. Assay buffer (10 ml) was prepared by addition of 2 ml of FluxOR chloride free buffer (5×), 100 μl of Probenicid (100×), and 0.2 ml of Ouabain (13.77 mM) to 7.7 ml of deionized water. Stimulus buffer was composed of 15 mM Tl2SO4, 0.75 mM K2SO4 in FluxOR chloride free buffer (diluted to 1× using deionized water). The final concentration of Tl2SO4 and K2SO4 in the assay plate was 3 mM and 0.15 mM, respectively.
Plating and induction of cells: The CHO T-Rex hROMK (human Kir1.1) stable cell line was maintained in Ham's F12 media supplemented with 10% FBS, 1% Penicillin-Streptomycin, 500 μg/ml Zeocin and 10 μg/ml Blasticidin at 37° C. in a 5% CO2 incubator. One day before the experiment, the cells were dissociated by incubation with Versene solution (15040-066, Life Technologies) for 10 minutes at 37° C. followed by addition of growth media. The cell suspension was centrifuged at 1200 rpm for 5 min. After discarding the supernatant, the cells were resuspended in fresh growth media and cell concentration was determined using a hemocytometer. Next, 0.5 μg/ml of Doxycycline was added to the cell suspension to induce hROMK channel expression and 50 μl (10,000 cells/well) of cell suspension was added to each well of a poly-D lysine coated 384 well black, optically clear bottom plate (6007718, Perkin Elmer). The assay plate was kept at 37° C. in a 5% CO2 incubator.
Assay protocol: On the day of experiment, media was removed and loading buffer was added (30 μl/well) to the assay plate. The cells were incubated in the loading buffer for 30 minutes at 37° C. The loading buffer was then replaced by assay buffer (30 μl/well) followed by addition of test compounds or controls. The cells were incubated with compounds for 30 minutes and the plate was then mounted on FlexStation (Molecular Devices) for fluorescence read out with excitation and emission wavelengths at 488 and 525 nm, respectively. Each well was read for 90 sec at 2 sec interval and the stimulus buffer was added after 20 seconds of baseline recording. The final DMSO concentration was either 0.5 or 1% in the assay plate. […] controls were defined by addition of DMSO or 3 μM of a standard ROMK inhibitor, respectively, to the wells instead of a test compound.
A 10-point concentration response curve was used to estimate the IC50 value of test compounds.
The data in Table 3 is reported with two significant figures.

Sequence of hROMK (human Kir1.1) (P48048 whole entry): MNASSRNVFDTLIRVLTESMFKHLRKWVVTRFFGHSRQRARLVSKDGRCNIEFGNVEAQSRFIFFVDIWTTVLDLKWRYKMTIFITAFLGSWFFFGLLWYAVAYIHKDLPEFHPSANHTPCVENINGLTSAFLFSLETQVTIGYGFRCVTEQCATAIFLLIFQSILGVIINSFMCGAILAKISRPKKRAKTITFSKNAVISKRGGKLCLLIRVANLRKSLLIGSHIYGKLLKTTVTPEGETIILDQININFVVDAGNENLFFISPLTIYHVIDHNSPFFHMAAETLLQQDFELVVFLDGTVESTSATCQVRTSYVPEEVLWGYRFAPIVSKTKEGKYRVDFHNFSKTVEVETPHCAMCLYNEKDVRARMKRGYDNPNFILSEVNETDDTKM

Row | Structure (SMILES) | IC50
1 | Cn1c(=O)oc2ccc(C(O)CN3CCc4nc(-n5ncc6c(C#N)cccc65)ncc4C3)cc21 (single isomer, unassigned) [Example 3-I, 1-(6-(2-hydroxy-2-(3-methyl-2-oxo-2,3-dihydrobenzo[d]oxazol-5-yl)ethyl)-5,6,7,8-tetrahydropyrido[4,3-d]pyrimidin-2-yl)-1H-indazole-4-carbonitrile] | 740 nM
2 | Cn1c(=O)oc2ccc(C(O)CN3CCc4nc(-n5ncc6c(C#N)cccc65)ncc4C3)cc21 (single isomer, unassigned) [Example 3-II, 1-(6-(2-hydroxy-2-(3-methyl-2-oxo-2,3-dihydrobenzo[d]oxazol-5-yl)ethyl)-5,6,7,8-tetrahydropyrido[4,3-d]pyrimidin-2-yl)-1H-indazole-4-carbonitrile] | 1600 nM
3 | Cc1c(C(CO)N2CCc3nc(-n4cc(C#N)c5ccccc54)ncc3C2)ccc2c1COC2=O (single isomer, unassigned) [Example 9-I, 1-(6-(2-hydroxy-1-(4-methyl-1-oxo-1,3-dihydroisobenzofuran-5-yl)ethyl)-5,6,7,8-tetrahydropyrido[4,3-d]pyrimidin-2-yl)-1H-indole-3-carbonitrile] | 3000 nM
4 | Cc1c(C(CO)N2CCc3nc(-n4cc(C#N)c5ccccc54)ncc3C2)ccc2c1COC2=O (single isomer, unassigned) [Example 9-II, 1-(6-(2-hydroxy-1-(4-methyl-1-oxo-1,3-dihydroisobenzofuran-5-yl)ethyl)-5,6,7,8-tetrahydropyrido[4,3-d]pyrimidin-2-yl)-1H-indole-3-carbonitrile] | 1800 nM
5 | N#Cc1ccc2c(ccn2-c2ncc3c(n2)CCN(CC(O)c2ccc4c(c2)COC4=O)C3)c1 (single isomer, unassigned) [Example 17-II, 1-(6-(2-hydroxy-2-(1-oxo-1,3-dihydro-isobenzofuran-5-yl)ethyl)-5,6,7,8-tetrahydropyrido[4,3-d]pyrimidin-2-yl)-1H-indole-5-carbonitrile] | 850 nM
6 | N#Cc1cccc2c1ccn2-c1ncc2c(n1)CCN(CC(O)c1ccc3c(c1)COC3=O)C2 (single isomer, unassigned) [Example 18-II, 1-(6-(2-hydroxy-2-(1-oxo-1,3-dihydro-isobenzofuran-5-yl)ethyl)-5,6,7,8-tetrahydropyrido[4,3-d]pyrimidin-2-yl)-1H-indole-4-carbonitrile] | 580 nM
7 | Cc1c(C(O)CN2CCc3nc(-n4ccc5c(C#N)ccnc54)ncc3C2)ccc2c1COC2=O (single isomer, unassigned) [Example 19-II, 1-(6-(2-hydroxy-2-(4-methyl-1-oxo-1,3-dihydroisobenzofuran-5-yl)ethyl)-5,6,7,8-tetrahydropyrido[4,3-d]pyrimidin-2-yl)-1H-pyrrolo[2,3-b]pyridine-4-carbonitrile] | 1900 nM
8 | Cn1c(=O)oc2ccc(C(O)CN3CCc4nc(-n5ccc6c(C#N)cccc65)ncc4C3)cc21 (single isomer, unassigned) [Example 22-I, 1-(6-(2-hydroxy-2-(3-methyl-2-oxo-2,3-dihydrobenzo[d]oxazol-5-yl)ethyl)-5,6,7,8-tetrahydropyrido[4,3-d]pyrimidin-2-yl)-1H-indole-4-carbonitrile] | 1000 nM
9 | Cn1c(=O)oc2ccc(C(O)CN3CCc4nc(-n5ccc6c(C#N)cccc65)ncc4C3)cc21 (single isomer, unassigned) [Example 22-II, 1-(6-(2-hydroxy-2-(3-methyl-2-oxo-2,3-dihydrobenzo[d]oxazol-5-yl)ethyl)-5,6,7,8-tetrahydropyrido[4,3-d]pyrimidin-2-yl)-1H-indole-4-carbonitrile] | 700 nM
10 | Cc1c(C(CO)N2CCc3nc(Nc4ccc(C#N)c(F)c4)ncc3C2)ccc2c1COC2=O (single isomer, unassigned) [Example 29-I, 2-fluoro-4-((6-(2-hydroxy-1-(4-methyl-1-oxo-1,3-dihydroisobenzofuran-5-yl)ethyl)-5,6,7,8-tetrahydropyrido [4,3-d]pyrimidin-2-yl)amino)benzonitrile] | 3000 nM
11 | Cc1c(C(CO)N2CCc3nc(Nc4ccc(C#N)c(F)c4)ncc3C2)ccc2c1COC2=O (single isomer, unassigned) [Example 29-II, 2-fluoro-4-((6-(2-hydroxy-1-(4-methyl-1-oxo-1,3-dihydroisobenzofuran-5-yl)ethyl)-5,6,7,8-tetrahydropyrido [4,3-d]pyrimidin-2-yl)amino)benzonitrile] | 2100 nM
12 | Cc1c(C(CO)N2CCc3cc(Nc4ccc(C#N)c(F)c4)ccc3C2)ccc2c1COC2=O (single isomer, unassigned) [Example 33-II, 2-fluoro-4-((2-(2-hydroxy-1-(4-methyl-1-oxo-1,3-dihydroisobenzofuran-5-yl)ethyl)-1,2,3,4-tetrahydroisoquinolin-6-yl)amino) benzonitrile] | 1800 nM

Stronger by IC50, values ahead:

Row | IC50 | Structure (SMILES)
13 | 460 nM | Cc1c(C(O)CN2CCc3nc(-n4ccc5c(C#N)cccc54)ncc3C2)ccc2c1COC2=O (single isomer, unassigned) [Example 1-II, 1-(6-(2-hydroxy-2-(4-methyl-1-oxo-1,3-dihydroisobenzofuran-5-yl)ethyl)-5,6,7,8-tetrahydropyrido[4,3-d]pyrimidin-2-yl)-1H-indole-4-carbonitrile]
14 | 83 nM | Cc1c(C(O)CN2CCc3nc(-n4cc(C#N)c5ccccc54)ncc3C2)ccc2c1COC2=O (single isomer, unassigned) [Example 8-II, 1-(6-(2-hydroxy-2-(4-methyl-1-oxo-1,3-dihydroisobenzofuran-5-yl)ethyl)-5,6,7,8-tetrahydropyrido[4,3-d]pyrimidin-2-yl)-1H-indole-3-carbonitrile]
15 | 38 nM | Cc1c(C(O)CN2CCc3nc(-n4ncc5c(C#N)cccc54)ncc3C2)ccc2c1COC2=O (single isomer, unassigned) [Example 12-I, 1-(6-(2-hydroxy-2-(4-methyl-1-oxo-1,3-dihydroisobenzofuran-5-yl)ethyl)-5,6,7,8-tetrahydropyrido[4,3-d]pyrimidin-2-yl)-1H-indazole-4-carbonitrile]
16 | 410 nM | Cc1c(C(O)CN2CCc3nc(-n4ncc5c(C#N)cccc54)ncc3C2)ccc2c1COC2=O (single isomer, unassigned) [Example 12-II, 1-(6-(2-hydroxy-2-(4-methyl-1-oxo-1,3-dihydroisobenzofuran-5-yl)ethyl)-5,6,7,8-tetrahydropyrido[4,3-d]pyrimidin-2-yl)-1H-indazole-4-carbonitrile]
17 | 380 nM | Cc1c(C(O)CN2CCc3nc(-n4ccc5cc(C#N)ccc54)ncc3C2)ccc2c1COC2=O (single isomer, unassigned) [Example 16-II, 1-(6-(2-hydroxy-2-(4-methyl-1-oxo-1,3-dihydroisobenzofuran-5-yl)ethyl)-5,6,7,8-tetrahydropyrido[4,3-d]pyrimidin-2-yl)-1H-indole-5-carbonitrile]
18 | 340 nM | N#Cc1ccc2c(ccn2-c2ncc3c(n2)CCN(CC(O)c2ccc4c(c2)COC4=O)C3)c1 (single isomer, unassigned) [Example 17-I, 1-(6-(2-hydroxy-2-(1-oxo-1,3-dihydro-isobenzofuran-5-yl)ethyl)-5,6,7,8-tetrahydropyrido[4,3-d]pyrimidin-2-yl)-1H-indole-5-carbonitrile]
19 | 460 nM | Cc1c(C(O)CN2CCc3nc(-n4ccc5c(C#N)ccnc54)ncc3C2)ccc2c1COC2=O (single isomer, unassigned) [Example 19-I, 1-(6-(2-hydroxy-2-(4-methyl-1-oxo-1,3-dihydroisobenzofuran-5-yl)ethyl)-5,6,7,8-tetrahydropyrido[4,3-d]pyrimidin-2-yl)-1H-pyrrolo[2,3-b]pyridine-4-carbonitrile]
20 | 490 nM | Cc1c(C(CO)N2CCc3cc(Nc4ccc(C#N)c(F)c4)ccc3C2)ccc2c1COC2=O (single isomer, unassigned) [Example 33-I, 2-fluoro-4-((2-(2-hydroxy-1-(4-methyl-1-oxo-1,3-dihydroisobenzofuran-5-yl)ethyl)-1,2,3,4-tetrahydroisoquinolin-6-yl)amino) benzonitrile]
